As usually defined, the EC50 is the concentration that produces a half-maximal response.

SMILES strings stand for the structures. Bounds are passed on as bounds.

One experiment deals with hypoxia-inducible endogenous VEGF expression. Nature of the experiment: Hypoxia-inducible endogenous VEGF expression ELISA in HeLa cells, dose-response EC50 (Table 3). The format is cell-based, human. Particulars: Homo sapiens, HeLa, read-out: ELISA EC50 μM. Summed up: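 HeLa cells kept 24-48 h under hypoxia (1% O2, 5% CO2, nitrogen balance) with or without compound, e.g. seven concentrations; secreted VEGF in conditioned medium quantified by ELISA against a standard curve. Parallel Cell Titer Glo viability under identical conditions excludes cytotoxicity.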
(An ELISA detects its analyte on a solid surface through an enzyme-linked reagent.)
As to `COc1cc(C2c3[nH]c4ccc(Cl)cc4c3CCN2C(=O)Oc2ccccc2)ccc1OCCCN1CCOCC1` (stereo not drawn) [Compound 1130], the half-maximal effective concentration (EC50) fell in the range of 0.008 to 0.04 µM.

Turning to `O=C(Oc1ccc(Cl)cc1)N1CCc2c([nH]c3ccc(Cl)cc23)C1c1ccc(OCC(O)CN2CCSCC2)cc1` (stereo not drawn) [Compound 923], the EC50 is less than 0.008 µM.

`CCN1CCN(C(=O)COc2ccc(C3c4[nH]c5ccc(Cl)cc5c4CCN3C(=O)Oc3ccc(F)cc3)cc2)CC1` (stereo not drawn) [Compound 1024]: the EC50 was in the range of 0.04 to 0.2 µM.

With `O=C(Oc1ccc(Cl)cc1)N1CCc2c([nH]c3ccc(Cl)cc23)C1c1ccc(OCCCCN2CCOCC2)cc1` (stereo not drawn) [Compound 702], the half-maximal effective concentration (EC50) fell in the range of 0.008 to 0.04 µM.

In the case of `O=C(Oc1ccc(Cl)cc1)N1CCc2c([nH]c3ccc(Cl)cc23)C1c1ccc(OCC(O)CN2CCN(CCO)CC2)cc1` (stereo not drawn) [Compound 960], the concentration giving a half-maximal response (EC50) was in the range of 0.008 to 0.04 µM.

For `CN1CCN(CCCOc2cccc(C3c4[nH]c5ccc(Cl)cc5c4CCN3C(=O)Oc3ccc(F)cc3)c2)CC1` (stereo not drawn) [Compound 1113], the EC50 is 0.2 to 1 µM.

Consider `CCN1CCN(C(=O)COc2ccc(C3c4[nH]c5ccc(Cl)cc5c4CCN3C(=O)Oc3ccc(OC)cc3)cc2)CC1` (stereo not drawn) [Compound 1028], for which the 50% effective concentration (EC50) lay within 0.04 to 0.2 µM.

With `COc1ccc(OC(=O)N2CCc3c([nH]c4ccc(Cl)cc34)C2c2ccc(OCC(=O)N3CCN(CCCN(C)C)CC3)cc2)cc1` (stereo not drawn) [Compound 1029], the concentration giving a half-maximal response (EC50) was more than 1 µM.

Staying with this experiment, now noted: Homo sapiens; HeLa cells, hypoxic conditions (1% O2), 24-48 hours, VEGF in conditioned media; read-out: ELISA EC50.
`O=C(Oc1ccc(F)cc1)N1CCc2c([nH]c3ccc(Cl)cc23)C1c1ccc(OCC(O)Cn2ccnn2)cc1` (stereo not drawn) [Compound 941]: the EC50 was less than 0.008 µM.

Regarding `COCC(=O)NCC(O)CCOc1ccc([C@H]2c3[nH]c4ccc(Cl)cc4c3CCN2C(=O)Oc2ccc(Cl)cc2)cc1` (stereo partly drawn) [Compound 1278], the 50% effective concentration (EC50) is less than 0.008 µM.

Consider `O=C(Oc1ccc(Cl)cc1)N1CCc2c([nH]c3ccc(Cl)cc23)C1c1ccc(OCCn2ccnn2)cc1` (stereo not drawn) [Compound 839], for which the EC50 is 0.008 to 0.04 µM.

Take `O=C(Oc1ccc(F)cc1)N1CCc2c([nH]c3ccc(Cl)cc23)C1c1ccc(OCCCO)cc1` (stereo not drawn) [Compound 1110]: the concentration for a half-maximal effect (EC50) was less than 0.008 µM.

For `COc1ccc(C2c3[nH]c4ccc(Cl)cc4c3CCN2C(=O)Oc2ccc(Cl)cc2)cc1OCCn1cncn1` (stereo not drawn) [Compound 1089], the EC50 was in the range of 0.2 to 1 µM.

In the case of `O=C(Oc1ccccc1)N1CCc2c([nH]c3ccc(Cl)cc23)C1c1ccccc1` (stereo not drawn) [Compound 121], the EC50 was in the range of 0.008 to 0.04 µM.

`O=C(Oc1ccc(F)cc1)N1CCc2c([nH]c3ccc(Cl)cc23)C1c1ccc(OCCCCCl)cc1` (stereo not drawn) [Compound 719]: the concentration for a half-maximal effect (EC50) is less than 0.008 µM.

Turning to `O=C(Oc1ccccc1Cl)N1CCc2c([nH]c3ccc(Cl)cc23)C1c1ccc(OCCCCl)cc1` (stereo not drawn) [Compound 713], the EC50 was 0.008 to 0.04 µM.

As to `O=C(Oc1ccc(Cl)cc1)N1CCc2c([nH]c3ccc(Cl)cc23)C1c1ccc(F)cc1` (stereo not drawn) [Compound 444], the EC50 was in the range of 0.008 to 0.04 µM.

For `O=C(Oc1ccc(Cl)cc1)N1CCc2c([nH]c3ccc(Cl)cc23)[C@@H]1c1ccc(OC[C@@H](O)CO)cc1` [Compound 1224], the concentration giving a half-maximal response (EC50) is less than 0.008 µM.

For the compound `O=C(Oc1ccc(F)cc1)Oc1ccc(C2c3[nH]c4ccc(Cl)cc4c3CCN2C(=O)Oc2ccc(F)cc2)cc1` (stereo not drawn) [Compound 576], the EC50 lay within 0.04 to 0.2 µM.

For `O=C(Oc1ccc(Cl)cc1)N1CCc2c([nH]c3ccc(Cl)cc23)[C@H]1c1ccc(OCCCn2nccn2)cc1` [Compound 1127], the EC50 was in the range of 0.04 to 0.2 µM.

With `O=C(Oc1ccc(F)cc1)N1CCc2c([nH]c3ccc(Cl)cc23)C1c1ccc(O)cc1` (stereo not drawn) [Compound 575], the EC50 is 0.2 to 1 µM.

Turning to `COc1ccc(C2c3[nH]c4ccc(Cl)cc4c3CCN2C(=O)O[C@H]2C[C@@H](C)CC[C@@H]2C(C)C)cc1` (stereo partly drawn) [Compound 192], the EC50 lay within 0.2 to 1 µM.

With `O=C(Oc1ccc(Cl)cc1)N1CCc2c([nH]c3ccc(Cl)cc23)[C@@H]1c1ccc(OCCCO)cc1` [Compound 1250], the EC50 is less than 0.008 µM.

In the case of `O=C(Oc1ccc(Cl)cc1)N1CCc2c([nH]c3ccc(Cl)cc23)C1c1ccc(NC2CCOCC2)cc1` (stereo not drawn) [Compound 440], the half-maximal effective concentration (EC50) is less than 0.008 µM.

For the compound `O=C(Oc1ccc(Cl)cc1)N1CCc2c([nH]c3ccc(Cl)cc23)[C@@H]1c1ccc(OCC(CO)CO)cc1` [Compound 1209], the EC50 is less than 0.008 µM.

As for `O=C(Oc1ccccc1)N1CCc2c([nH]c3ccc(Cl)cc23)C1c1ccc(OCC[C@H](O)CO)cc1` (stereo partly drawn) [Compound 1178], the EC50 was less than 0.008 µM.

On to `CC(C)OC(=O)Nc1ccc(C2c3[nH]c4ccc(Cl)cc4c3CCN2C(=O)Oc2ccc(Cl)cc2)cc1` (stereo not drawn) [Compound 489], for which the EC50 is 0.04 to 0.2 µM.

Consider `O=C(Oc1ccc(Cl)cc1)N1CCc2c([nH]c3ccc(Cl)cc23)C1c1ccc(OCCNc2cccnc2)cc1` (stereo not drawn) [#843], for which the EC50 is less than 0.008 µM.

Regarding `O=C(Oc1ccc(Cl)cc1)N1CCc2c([nH]c3ccc(Cl)cc23)C1c1ccc(OCCCCn2ccnc2)cc1` (stereo not drawn) [Compound 705], the EC50 was 0.008 to 0.04 µM.

Take `CC1(C)OC[C@H](CCOc2ccc(C3c4[nH]c5ccc(Cl)cc5c4CCN3C(=O)Oc3ccccc3)cc2)O1` (stereo partly drawn) [Compound 1168]: the EC50 was less than 0.008 µM.

Turning to `COc1cc(C2c3[nH]c4ccc(Cl)cc4c3CCN2C(=O)Oc2ccc(Cl)cc2)ccc1OCCn1cncn1` (stereo not drawn) [Compound 1086], the EC50 lay within 0.008 to 0.04 µM.

Take `O=C(Oc1ccc(Cl)cc1)N1CCc2c([nH]c3ccc(Cl)cc23)C1c1ccc(OCCCn2ccnn2)cc1` (stereo not drawn) [Compound 417]: the 50% effective concentration (EC50) is less than 0.008 µM.

For `O=C(Oc1ccc(F)cc1)N1CCc2c([nH]c3ccc(Cl)cc23)C1c1ccc(OCC2OCCO2)cc1` (stereo not drawn) [Compound 1051], the EC50 is less than 0.008 µM.

Staying with this experiment, now noted: Homo sapiens; HeLa cells, hypoxic conditions (1% O2), VEGF ELISA of conditioned media; read-out: ELISA EC50.
For the compound `O=C(NCC(O)CCOc1ccc([C@H]2c3[nH]c4ccc(Cl)cc4c3CCN2C(=O)Oc2ccc(Cl)cc2)cc1)c1ccncc1` (stereo partly drawn) [Compound 1627], the EC50 was less than 0.008 µM.

In the case of `CC(C)S(=O)(=O)NCC(O)COc1ccc(C2c3[nH]c4ccc(Cl)cc4c3CCN2C(=O)Oc2ccc(Cl)cc2)cc1` (stereo not drawn) [Compound 1566], the EC50 was 0.04 to 0.2 µM.

Regarding `CS(=O)(=O)Cc1cnc(Oc2ccc([C@H]3c4[nH]c5ccc(Cl)cc5c4CCN3C(=O)Oc3ccc(Cl)cc3)cc2)s1` [Compound 1702], the EC50 was less than 0.008 µM.

In the case of `Nc1ccn(CCOc2ccc(C3c4[nH]c5ccc(Cl)cc5c4CCN3C(=O)Oc3ccc(F)cc3)cc2)n1` (stereo not drawn) [Compound 1413], the EC50 is less than 0.008 µM.

Regarding `CCOC(=O)NCC(O)CCOc1ccc([C@H]2c3[nH]c4ccc(Cl)cc4c3CCN2C(=O)Oc2ccc(C)cc2)cc1` (stereo partly drawn) [Compound 1643], the EC50 was less than 0.008 µM.

For the compound `N#Cc1cn(CCOc2ccc(C3c4[nH]c5ccc(Cl)cc5c4CCN3C(=O)Oc3ccc(F)cc3)cc2)nc1N` (stereo not drawn) [Compound 1441], the 50% effective concentration (EC50) is 0.008 to 0.04 µM.

For the compound `CCCOC(=O)NCC(O)COc1ccc(C2c3[nH]c4ccc(Cl)cc4c3CCN2C(=O)Oc2ccc(Cl)cc2)cc1` (stereo not drawn) [Compound 1563], the half-maximal effective concentration (EC50) was 0.008 to 0.04 µM.

Turning to `CCOC(=O)NCC(O)CCOc1ccc([C@H]2c3[nH]c4ccc(Cl)cc4c3CCN2C(=O)Oc2ccc(Cl)cc2)cc1` (stereo partly drawn) [Compound 1636], the EC50 was less than 0.008 µM.

Regarding `O=C(Oc1ccc(Cl)cc1)N1CCc2c([nH]c3ccc(Cl)cc23)[C@@H]1c1ccc(Oc2ccc(Cl)nn2)cc1` [Compound 1698], the EC50 is less than 0.008 µM.

Regarding `[H]/N=c1\sc(C)cn1CCOc1ccc(C2c3[nH]c4ccc(Cl)cc4c3CCN2C(=O)Oc2ccc(F)cc2)cc1` (stereo not drawn) [Compound 1392], the 50% effective concentration (EC50) was less than 0.008 µM.

Regarding `O=C(Oc1ccc(Cl)cc1)N1CCc2c([nH]c3ccc(Cl)cc23)C1c1ccc(OCC(O)CNS(=O)(=O)C2CC2)cc1` (stereo not drawn) [Compound 1567], the EC50 is 0.04 to 0.2 µM.

For the compound `O=C(NCC(O)CCOc1ccc([C@H]2c3[nH]c4ccc(Cl)cc4c3CCN2C(=O)Oc2ccc(Cl)cc2)cc1)c1cccnc1` (stereo partly drawn) [Compound 1628], the 50% effective concentration (EC50) was less than 0.008 µM.
